Measured values published in US20240343699A1, “DERIVATIVES OF SUBSTITUTED MORPHOLINES AND USES THEREOF” (Supernus Pharmaceuticals, Inc., priority 2023, published 2024).
Counter-ions that a name gives are not always drawn.

Legend:
recognition memory [1] = experiment: Novel object recognition, scopolamine-impairment model, 3 hr retention interval
recognition memory [2] = experiment: Spontaneous novel object recognition (NOR), 48 hr retention interval; type: in vivo, male Wistar rats; details: donepezil 2.0 mg/kg i.p., 48 hr delay
rat red blood cells = experiment: Hemolysis in rat blood; type: cell-based; details: rat blood, 60 min exposure; read-out: EC50 (% RBC lysis)
Method: Stability of Test Articles at Different pH Values. 10 mM stock solutions of COMPOUND A were prepared in DMSO. From this stock solution, a single concentration in a 10 μL aliquot was added to three fluid matrices: SGF at pH 2.0 (gastric), SIF at pH 6.0 (upper intestine), and PBS at 7.4 (systemic). The final volume was 1 mL (0.1 mM). The preparations were then incubated at 37° C. and samples were collected at 0, 15, 30, 60, and 120 min for analysis of parent material by LC/MS/MS. The collected sample was quenched in acetonitrile/0.1% formic acid mixture. Red Blood Cell (RBC): Human and rat blood were centrifuged to separate out red blood cells at […] for 15 min. The upper plasma level was aspirated with a micropipette and placed in a bleach solution for disposal. The RBC pellet was resuspended in sterile isotonic saline. The pellet was gently resuspended by rocking the tube. The sample was then centrifuged again to collect the RBC pellet and then resuspended and washed one more time following the same procedure. A total of three was done. Following the last wash and centrifugation, the RBCs were resuspended with PBS; and mixed by inversion. Aliquots of the resuspended and washed RBCs were then placed into 4 reaction tubes. These tubes were centrifuged to collect the RBCs. The fluid level was marked on each tube, then the supernatant was aspirated off and the cells resuspended with room temperature PBS pH 7.4 to the original mark. An aliquot of the RBC suspension was added to four sterile tubes containing PBS pH 7.4 at room temperature.
Stability in Human and Rat Red Blood cells and Hemolysis. […] After centrifugation, 70 μL of supernatant (without disturbing the pellet) was transferred to a clean and clear polystyrene flat bottomed 96-well plate and the absorbance of the sample at a single wavelength was measured using a Bio Tech Synergy Hl Plate Reader at a wavelength of 410 nm. […] Stability was measured by measuring loss of parent compound using LC/MS/MS.

immobility = experiment: Tail suspension test (TST); details: imipramine 15 mg/kg IP, vs vehicle (p=0.01)
Method: The tail suspension test is an experimental method used in scientific research to measure a state of being helpless in rodents, especially in mice. It is based on the observation that if a mouse is subjected to short term inescapable stress then the mouse will stop struggling. Immobility is quantified by measuring the amount of time lacking whole body activity.
The immobilized time in the last 4 min of the TST, which indicated depression-like behavior, was quantified using offline video manual scoring in a blinded manner.
Animals. Adult (7 to 8 weeks) male mice (C57Bl/6, Charles River Laboratories) were used in the study. Upon arrival, animals were group-housed (5/cage) with access to food and water ad libitum. Animals were maintained on a 12/12-hour light/dark cycle in a temperature—(22±2° C.) and humidity—(approx. 50%) controlled room. Animals were numbered consecutively by tail marks. Each cage was identified by a card indicating the study number, sex, animal numbers and date of birth.
Test article formulations were prepared fresh based on weight-to-volume in the vehicle on each dosing day. […] The appearance of the formulations was clear, with no precipitations. […] A vehicle group was included for comparison.
Monitoring. A piezoelectric sensor operated by the SmartCage system was utilized and video recording was conducted for scoring. After animals acclimated to the testing room, an individual mouse's tail was placed onto the piezoelectric sensor-board and the mouse was hung upside down, which signaled the immediate start of the recording of struggle activity, and it lasted for 6 min. The mouse was then taken off and returned to the home cage. The immobilized time, indicating depression-like behavior, was quantified using manual scoring of the video recordings for the period from 120 seconds to 360 seconds during TST. The percent immobility time was calculated: (immobility time/240 seconds)*100.
The immobilized time in the last 4 min of the TST, which indicates depression-like behavior, was quantified using offline video manual scoring in a blinded manner.
Animals. Adult (8 weeks, approximately 20-25 g) male mice (C57Bl/6, Vendor: Charles River Laboratories) were used in the study. Upon arrival, animals were group-housed (5/cage) with access to food and water ad libitum. Animals were maintained on a 12/12-hour light/dark cycle in a temperature—(22±2° C.) and humidity—(35-50%) controlled room. Animals were numbered consecutively by tail ID. Each cage was identified by a colored card indicating the study number, sex, animal numbers and date of birth.
Test article formulations were prepared fresh based on weight-to-volume in the vehicle on dosing day. […] The appearance of the formulations was clear, with no precipitations.
The tail suspension test is an experimental method used in scientific research to measure a state of being helpless in rodents, especially in mice. It is based on the observation that if a mouse is subjected to short term inescapable stress then the mice will give up struggling. “Immobility” is quantified by measuring the amount of time during which the animal has no whole-body activity.
Tail Suspension Test (TST). A piezoelectric sensor operated by the SmartCage system was utilized and video recording was conducted for scoring. Once animals were acclimated to the testing room, the TST was initiated by placing the tail of the test mouse onto the piezoelectric sensor-board and hanging the mouse upside down. The recording period was initiated once the mouse was upside down and lasted for 6 min. After the recording period, the mouse was removed from the recording device and returned to its home cage.

CN1[C@@H]2C[C@@H](OC(=O)[C@H](CO)c3ccccc3)C[C@H]1[C@@H]1O[C@@H]12 [scopolamine, (−)-scopolamine hydrobromide] was tested, and the “d2 ratios vs vehicle-controls” value (recognition memory [1]; vehicle-scopolamine 0.2 mg/kg i.p.) was “significantly impaired compared to the vehicle-controls”.

In the case of Cc1ccc(Sc2ccccc2N2CCNCC2)c(C)c1 [vortioxetine], the “memory enhancement (attenuation of the scopolamine impairment)” value (recognition memory [1]; vortioxetine 10 mg/kg s.c. + scopolamine 0.2 mg/kg i.p., 3 hr delay) is reported as “not associated with significant memory enhancement” and the adverse reactions (recognition memory [1]; vortioxetine-scopolamine combination, three of the twelve rats, A/A session) is reported as “adverse reactions during the A/A session (thigmotaxis, vocalizations, labored breathing)”.

With COc1cc2c(cc1OC)C(=O)C(CC1CCN(Cc3ccccc3)CC1)C2 (stereo not drawn) [donepezil, reference compound] the “preference for the novel object (exploration times)” value (recognition memory [2]) was “significant preference for the novel object”.

With C[C@@H]1[C@H](O)[C@@H](C)/C=C/C=C/C=C/C=C/C=C/C=C/C=C/[C@H](O[C@@H]2O[C@H](C)[C@@H](O)[C@H](N)[C@@H]2O)C[C@@H]2O[C@](O)(C[C@@H](O)C[C@@H](O)[C@H](O)CC[C@@H](O)C[C@@H](O)CC(=O)O[C@H]1C)C[C@H](O)[C@H]2C(=O)O [amphotericin B, reference compound] the EC50 (rat red blood cells) was 4.73 µM.

With CN(C)CCCN1c2ccccc2CCc2ccccc21 [imipramine, reference compound] the percent immobility time (immobility) was “significantly reduced immobility time”.
